Blank lines part the entries; values can stand above or below the molecule they belong to.
Columns and labels:
[1] = molecular target: Histamine H1 receptor (Cavia porcellus) (UniProt P31389); assay: In vitro antagonism of histamine-induced contraction of guinea pig ileum at 1x10E-7M; format: functional, tissue-based
[2] = Dissociation constant (KD) of the compound
[3] = pA2 value is determined compared to standard H1-antagonists; format: ADME
[4] = molecular target: Histamine H1 receptor (Cavia porcellus) (UniProt P31389); assay: Compound is evaluated for the inhibition of H1-receptor antagonists of histamine-induced skin wheal formation in the guinea pig with a pretreatment interval prior to histamine challenge at 1 h; format: functional
[5] = molecular target: Histamine H1 receptor (Cavia porcellus) (UniProt P31389); assay: Compound is evaluated for the inhibition of H1-receptor antagonists of histamine-induced skin wheal formation in the guinea pig with a pretreatment interval prior to histamine challenge at 18 h; format: functional
[6] = Partition coefficient (logP); format: physicochemical; conditions: octanol/water
[7] = tested on: Cavia porcellus; assay: Compound is tested for protection by antihistamines against histamine-induced lethality in the guinea pig by oral administration with a pretreatment period of 1 h; format: functional
[8] = tested on: Cavia porcellus; assay: Compound is tested for protection by antihistamines against histamine-induced lethality in the guinea pig by oral administration with pretreatment period of 18 h; format: functional
[9] = molecular target: T1, 5-hydroxytryptamine receptor 1A (Homo sapiens, UniProt P08908); assay: Compound is evaluated for in vitro receptor binding affinity against 5-hydroxytryptamine 1A receptor; set-up: species or system Cavia porcellus
T1 sequence (P08908 whole entry): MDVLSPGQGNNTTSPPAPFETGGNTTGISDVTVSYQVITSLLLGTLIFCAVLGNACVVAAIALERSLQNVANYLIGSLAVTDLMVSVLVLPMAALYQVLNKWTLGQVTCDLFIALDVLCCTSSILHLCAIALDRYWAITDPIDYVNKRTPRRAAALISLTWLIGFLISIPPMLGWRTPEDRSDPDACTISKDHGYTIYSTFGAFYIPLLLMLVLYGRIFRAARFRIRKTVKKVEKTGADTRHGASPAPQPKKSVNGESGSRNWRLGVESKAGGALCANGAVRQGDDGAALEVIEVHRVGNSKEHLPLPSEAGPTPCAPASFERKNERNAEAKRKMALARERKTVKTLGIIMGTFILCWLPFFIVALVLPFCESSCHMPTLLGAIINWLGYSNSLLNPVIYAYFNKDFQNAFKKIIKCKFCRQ

[10] = molecular target: T2, Adrenergic receptor alpha-1 (Homo sapiens, UniProt P35348+P25100+P35368); assay: Compound is evaluated for in vitro receptor binding affinity against Alpha-1 adrenergic receptor; format: protein assay, Cavia porcellus
T2 sequence (P35348 whole entry): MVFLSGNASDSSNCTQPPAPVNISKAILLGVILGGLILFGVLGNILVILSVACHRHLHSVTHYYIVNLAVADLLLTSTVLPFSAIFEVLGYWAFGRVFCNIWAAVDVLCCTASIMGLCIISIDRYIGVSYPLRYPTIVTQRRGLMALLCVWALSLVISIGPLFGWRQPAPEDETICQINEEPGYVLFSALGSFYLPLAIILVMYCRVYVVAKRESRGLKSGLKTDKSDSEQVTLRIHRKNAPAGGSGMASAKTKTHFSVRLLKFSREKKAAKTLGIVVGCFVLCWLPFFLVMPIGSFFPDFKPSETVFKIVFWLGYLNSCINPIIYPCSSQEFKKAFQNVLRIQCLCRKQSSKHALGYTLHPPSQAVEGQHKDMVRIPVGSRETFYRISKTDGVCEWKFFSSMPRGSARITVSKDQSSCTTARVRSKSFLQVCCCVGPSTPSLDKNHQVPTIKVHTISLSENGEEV
T2 sequence (P25100 whole entry): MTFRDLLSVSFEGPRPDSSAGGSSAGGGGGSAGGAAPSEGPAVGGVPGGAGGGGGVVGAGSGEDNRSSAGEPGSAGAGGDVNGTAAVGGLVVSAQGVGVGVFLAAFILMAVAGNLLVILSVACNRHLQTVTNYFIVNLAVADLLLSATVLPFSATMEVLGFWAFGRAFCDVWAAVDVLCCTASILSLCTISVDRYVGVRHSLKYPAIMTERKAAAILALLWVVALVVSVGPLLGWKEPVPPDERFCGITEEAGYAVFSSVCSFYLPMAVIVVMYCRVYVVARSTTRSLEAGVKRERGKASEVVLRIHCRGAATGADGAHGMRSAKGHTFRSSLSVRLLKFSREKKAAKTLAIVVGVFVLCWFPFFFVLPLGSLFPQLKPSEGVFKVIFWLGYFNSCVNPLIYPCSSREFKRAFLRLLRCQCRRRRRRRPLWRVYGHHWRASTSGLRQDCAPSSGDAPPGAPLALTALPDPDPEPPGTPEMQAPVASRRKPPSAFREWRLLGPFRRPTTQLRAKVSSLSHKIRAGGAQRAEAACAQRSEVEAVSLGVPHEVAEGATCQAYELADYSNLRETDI
T2 sequence (P35368 whole entry): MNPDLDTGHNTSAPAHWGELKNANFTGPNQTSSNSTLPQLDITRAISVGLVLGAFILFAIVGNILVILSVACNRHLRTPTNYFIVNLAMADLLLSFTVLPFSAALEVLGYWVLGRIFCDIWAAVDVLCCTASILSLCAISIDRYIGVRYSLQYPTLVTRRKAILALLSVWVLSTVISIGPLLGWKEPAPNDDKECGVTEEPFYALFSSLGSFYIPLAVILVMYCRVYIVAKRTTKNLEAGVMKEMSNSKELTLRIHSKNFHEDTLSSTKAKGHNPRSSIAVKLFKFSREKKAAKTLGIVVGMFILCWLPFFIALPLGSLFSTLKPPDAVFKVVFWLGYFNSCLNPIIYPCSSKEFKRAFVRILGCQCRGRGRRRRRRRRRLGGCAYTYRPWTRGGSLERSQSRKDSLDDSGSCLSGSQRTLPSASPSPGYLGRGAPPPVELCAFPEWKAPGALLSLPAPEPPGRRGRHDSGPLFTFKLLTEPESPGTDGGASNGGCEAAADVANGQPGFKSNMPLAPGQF

[11] = molecular target: D(2) dopamine receptor (Homo sapiens, UniProt P14416); assay: Compound is evaluated for in vitro receptor binding affinity against Dopamine receptor D2; set-up: species or system Cavia porcellus
[12] = molecular target: Histamine H1 receptor (Cavia porcellus, UniProt P31389); assay: Compound is evaluated for in vitro receptor binding affinity against H1 receptor
[13] = molecular target: T3, Muscarinic acetylcholine receptor M1 (Homo sapiens, UniProt P11229); assay: Compound is evaluated for in vitro receptor binding affinity against Muscarinic acetylcholine receptor M1; set-up: species or system Cavia porcellus
T3 sequence (P11229 whole entry): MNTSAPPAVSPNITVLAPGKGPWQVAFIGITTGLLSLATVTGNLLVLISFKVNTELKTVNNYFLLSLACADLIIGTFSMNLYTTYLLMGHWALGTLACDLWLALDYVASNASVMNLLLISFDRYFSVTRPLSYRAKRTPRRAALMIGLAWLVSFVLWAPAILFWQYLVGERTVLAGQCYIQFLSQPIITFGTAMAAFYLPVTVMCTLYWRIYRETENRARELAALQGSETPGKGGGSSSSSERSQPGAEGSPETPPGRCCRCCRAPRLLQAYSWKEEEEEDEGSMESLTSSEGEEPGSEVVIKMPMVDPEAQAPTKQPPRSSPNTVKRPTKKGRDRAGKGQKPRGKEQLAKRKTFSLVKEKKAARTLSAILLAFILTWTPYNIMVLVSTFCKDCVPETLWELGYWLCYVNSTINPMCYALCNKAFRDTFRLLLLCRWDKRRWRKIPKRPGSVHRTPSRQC

[14] = molecular target: T4, Muscarinic acetylcholine receptor M2 (Homo sapiens, UniProt P08172); assay: Compound is evaluated for in vitro receptor binding affinity against Muscarinic acetylcholine receptor M2; set-up: species or system Cavia porcellus
T4 sequence (P08172 whole entry): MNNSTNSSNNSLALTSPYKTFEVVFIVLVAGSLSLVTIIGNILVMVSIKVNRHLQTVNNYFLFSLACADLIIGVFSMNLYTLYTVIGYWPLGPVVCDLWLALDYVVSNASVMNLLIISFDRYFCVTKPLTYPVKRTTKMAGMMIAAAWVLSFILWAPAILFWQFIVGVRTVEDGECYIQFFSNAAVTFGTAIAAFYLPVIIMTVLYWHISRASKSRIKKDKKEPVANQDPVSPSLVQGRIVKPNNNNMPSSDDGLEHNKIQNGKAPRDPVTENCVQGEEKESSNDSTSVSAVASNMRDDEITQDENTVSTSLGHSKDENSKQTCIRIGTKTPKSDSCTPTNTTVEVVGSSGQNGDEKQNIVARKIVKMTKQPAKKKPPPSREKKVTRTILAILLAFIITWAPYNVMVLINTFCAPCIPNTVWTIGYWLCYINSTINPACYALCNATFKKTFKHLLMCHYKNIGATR

[15] = Potency relative to 7-[3-(4-Benzhydryloxy-piperidine-1-yl)-propyl]-1,3-dimethyl-3,7-dihydro-purine-2,6-dione; Relative potency = […]/[…]

Sequence of Histamine H1 receptor (Cavia porcellus) (P31389 whole entry): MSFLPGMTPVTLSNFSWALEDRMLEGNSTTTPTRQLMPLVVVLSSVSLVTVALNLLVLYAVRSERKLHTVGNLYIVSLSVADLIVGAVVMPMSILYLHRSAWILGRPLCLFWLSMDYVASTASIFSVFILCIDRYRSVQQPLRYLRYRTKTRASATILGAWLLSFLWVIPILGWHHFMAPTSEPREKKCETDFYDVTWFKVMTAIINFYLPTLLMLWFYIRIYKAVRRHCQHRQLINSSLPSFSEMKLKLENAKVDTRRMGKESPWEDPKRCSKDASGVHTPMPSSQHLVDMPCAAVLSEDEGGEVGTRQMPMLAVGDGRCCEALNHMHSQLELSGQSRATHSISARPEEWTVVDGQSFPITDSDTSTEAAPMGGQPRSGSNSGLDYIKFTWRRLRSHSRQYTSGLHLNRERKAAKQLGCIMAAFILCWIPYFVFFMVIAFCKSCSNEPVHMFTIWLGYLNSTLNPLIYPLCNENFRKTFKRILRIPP
Sequence of D(2) dopamine receptor (P14416 whole entry): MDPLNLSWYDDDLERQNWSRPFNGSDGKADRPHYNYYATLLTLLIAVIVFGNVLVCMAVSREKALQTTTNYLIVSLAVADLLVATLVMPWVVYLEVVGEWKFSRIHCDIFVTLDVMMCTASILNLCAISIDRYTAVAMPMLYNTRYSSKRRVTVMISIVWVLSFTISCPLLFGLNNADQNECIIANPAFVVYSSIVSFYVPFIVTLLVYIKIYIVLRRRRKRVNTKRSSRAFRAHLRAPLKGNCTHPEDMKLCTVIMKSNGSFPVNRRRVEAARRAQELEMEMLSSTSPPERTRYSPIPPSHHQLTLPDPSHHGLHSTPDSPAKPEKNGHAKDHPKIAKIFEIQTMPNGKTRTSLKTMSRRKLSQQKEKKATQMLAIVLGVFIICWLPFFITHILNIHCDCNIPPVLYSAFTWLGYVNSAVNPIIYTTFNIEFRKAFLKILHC
Sequence of Histamine H1 receptor (P31389 whole entry): as the sequence (P31389 whole entry) above

inhibition [1]: < 10%
SMILES: O=C1C2C3C=CC(C4CC34)C2C(=O)N1CCCN1CCN(C(c2ccccc2)c2ccc(Cl)cc2)CC1 (centres undefined)

inhibition [1]: 29%
SMILES: Cn1c(=O)c2c(ncn2CCCN2CCN(c3cncc(Cl)n3)CC2)n(C)c1=O

inhibition [1]: 50%
SMILES: Cn1c(=O)c2c(ncn2CCCN2CCN(c3ccc(Cl)nn3)CC2)n(C)c1=O

inhibition [1]: 77%
SMILES: O=C1CC2(CCCC2)CC(=O)N1CCCCN1CCN(C(c2ccc(F)cc2)c2ccc(F)cc2)CC1

Kd [2]: 0.0037 µM | ED50 [4]: 0.79 mg/kg | ED50 [5]: 1.07 mg/kg
SMILES: CN(C)CCC(c1ccc(Cl)cc1)c1ccccn1 (centres undefined) [CHLORPHENIRAMINE]
pA2 [3]: 8.4

inhibition [1]: 29%
SMILES: Cn1c(=O)c2c(ncn2CCCN2CCN(C(c3ccccc3)c3ccc(Cl)cc3)CC2)n(C)c1=O (centres undefined)

inhibition [1]: 76%
SMILES: O=C1C2C3C=CC(C4CC34)C2C(=O)N1CCCCN1CCN(c2ccc(Cl)nn2)CC1 (centres undefined)

Kd [2]: 0.0055 µM | ED50 [4]: 0.53 mg/kg
SMILES: COc1ccc(CCN2CCC(Nc3nc4ccccc4n3Cc3ccc(F)cc3)CC2)cc1 [ASTEMIZOLE]
pA2 [3]: 8.3

inhibition [1]: 98%
SMILES: O=C1C2C3C=CC(C4CC34)C2C(=O)N1CCCCN1CCN(C(c2ccc(F)cc2)c2ccc(F)cc2)CC1 (centres undefined)

inhibition [1]: 29%
SMILES: O=C1C2C3C=CC(C4CC34)C2C(=O)N1CCCN1CCN(C(c2ccc(F)cc2)c2ccc(F)cc2)CC1 (centres undefined)

Kd [2]: 0.033 µM
SMILES: CC(C)(C)c1ccc(C(O)CCCN2CCC(C(O)(c3ccccc3)c3ccccc3)CC2)cc1 (centres undefined) [TERFENADINE]

inhibition [1]: < 10%
SMILES: Cn1c(=O)c2c(ncn2CCCN2CCN(c3nccnc3Cl)CC2)n(C)c1=O

SMILES: CC(C)(C)c1ccc(C(=O)CCCN2CCC(OC(c3ccccc3)c3ccccc3)CC2)cc1 [EBASTINE]
logP [6]: 2.74 | Kd [2]: 0.004 µM | pA2 [3]: 7.4 | ED50 [7]: 0.45 mg/kg | ED50 [8]: 1.71 mg/kg

SMILES: Cl.Cl.Cn1c(=O)c2c(ncn2CCCN2CCN(C(c3ccc(F)cc3)c3ccc(F)cc3)CC2)n(C)c1=O
% inhibition [9]: 38% | logP [6]: 1.81 | Kd [2]: 0.0066 µM | pA2 [3]: 8.2 | IC50 [10]: 0.059 µM | % inhibition [11]: 43% | ED50 [4]: 0.45 mg/kg | ED50 [7]: 1.96 mg/kg | inhibition [1]: 92% | IC50 [12]: 0.22 µM | IC50 [13]: 0.67 µM | IC50 [14]: > 10 µM | Relative potency [15]: 0.0012

inhibition [1]: < 10%
SMILES: O=C1C2C3C=CC(C4CC34)C2C(=O)N1CCN1CCN(C(c2ccccc2)c2ccccc2)CC1 (centres undefined)

inhibition [1]: 50%
SMILES: O=C1C2C3C=CC(C4CC34)C2C(=O)N1CCCCN1CCN(C(c2ccccc2)c2ccccc2)CC1 (centres undefined)

inhibition [1]: 14%
SMILES: Cn1c(=O)c2c(ncn2CCCCN2CCN(C(c3ccc(Cl)cc3)c3ccc(Cl)cc3)CC2)n(C)c1=O

inhibition [1]: < 10%
SMILES: O=C1C2C3C=CC(C4CC34)C2C(=O)N1CCN1CCN(C(c2ccc(F)cc2)c2ccc(F)cc2)CC1 (centres undefined)

From ChEMBL document CHEMBL1128457, “New antihistamines: substituted piperazine and piperidine derivatives as novel H1-antagonists” (J Med Chem, 1995)
